The compounds below were run on native tau aggregates (assay: TAU radioligand in vitro displacement assay ([3H]T808, autoradiography on human AD brain sections)). Conditions: compound 10 nM, radioligand [3H]T808 10 nM.
Format: binding
Outline: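 Displacement of 10 nM [3H]T808 from 10 μm human AD brain cryosections by test compounds at various concentrations, 30 min at room temperature in 50 mM Tris pH 7.4, then cold washes. Autoradiography after 5-day exposure; specific binding = ROI signal minus white-matter signal, expressed as % displacement.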

Q: Which “% displacement of [3H]T808 (10 nM) at 10 nM” value (“% displacement of [3H]T808” below) does the source give for `Oc1ccc(-c2cn3ccc(NCCF)cc3n2)cc1` [Example 145, 4-(7-(2-fluoroethylamino)imidazo[1,2-a]pyridin-2-yl)phenol] here?
A: The value was 29%.

Q: With `Oc1cccc(-c2cn3ccc(NCCF)cc3n2)c1` [Example 146, 3-(7-(2-fluoroethylamino)imidazo[1,2-a]pyridin-2-yl)phenol] as the compound, how does the “% displacement of [3H]T808” value read?
A: The value was 33%.

Q: With `FCCNc1ccn2cc(-c3ccc(N4CCOCC4)cc3)nc2c1` [Example 147, N-(2-Fluoroethyl)-2-(4-morpholin-4-ylphenyl)imidazo[1,2-a]pyridin-7-amine] as the compound, how does the “% displacement of [3H]T808” value read?
A: Its value is 23%.

Q: How did the “% displacement of [3H]T808” value turn out when `FCCCOc1ccc(-c2cn3ccc(NC4CC4)cc3n2)cc1` [Example 148, N-Cyclopropyl-2-[4-(3-fluoropropoxy)phenyl]imidazo[1,2-a]pyridin-7-amine] was run?
A: The value was 20%.

Q: Which “% displacement of [3H]T808” value does the source give for `FCCNc1ccn2cc(-c3ccco3)nc2c1` [Example 149, N-(2-Fluoroethyl)-2-(furan-2-yl)imidazo[1,2-a]pyridin-7-amine] here?
A: Its value is 23%.

What follows are compounds tested on tau aggregates (assay: Autoradiography of tritiated radioligands on human cortical brain sections (Braak V AD patient)). Conditions: radioligand 1.8 (ex. 62), 2.8 (ex. 64), 3.7 (ex. 61), 2.7 nM (ex. 63).
Format: binding
Protocol: The radioligand concentrations were 1.8, 2.8, 3.7 and 2.7 nM, respectively.

Q: For `[3H]CNc1ccn2cc(-c3ccc(OCF)cc3)nc2c1` [Example 61, [^3H]-[2-(4-Fluoromethoxy-phenyl)-imidazo[1,2-a]pyridin-7-yl]-methyl-amine], which autoradiogram staining pattern is on record?
A: The autoradiogram staining pattern was “punctate staining of tau aggregates in a layered distribution pattern”.

From patent US11358962B2, “2-hetaryl imidazol[1,2-a]pyridine derivatives” (Hoffmann-La Roche Inc., priority 2013, dated 2022)
